Test results as given in ChEMBL document CHEMBL1201862, “PubChem BioAssay data set” (2004).
Structures can show the parent of a compound that is named as a salt. Activity calls are given as the source filed them.

Key:
[1] = target: Tyrosine-protein kinase JAK2 (Homo sapiens, UniProt O60674); type: functional;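 note: JAK2 tested as one member of a kinase panel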
[2] = target: Casein kinase I isoform alpha (Homo sapiens, UniProt P48729); type: functional
[3] = target: Leukocyte tyrosine kinase receptor (Homo sapiens, UniProt P29376); assay: Navigating the Kinome. Panel member name: LTK; type: functional
[4] = target: Homeodomain-interacting protein kinase 4 (Homo sapiens, UniProt Q8NE63); type: functional
[5] = target: Hepatocyte growth factor receptor (Homo sapiens, UniProt P08581); type: functional;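 note: kinase panel profiling across the kinome, with MET as the panel member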
[6] = target: Serine/threonine-protein kinase PLK3 (Homo sapiens, UniProt Q9H4B4); type: functional
[7] = target: Casein kinase I isoform delta (Homo sapiens, UniProt P48730); type: functional;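 note: measured as one member (CSNK1D) of a kinome panel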
[8] = target: Rho-associated protein kinase 1 (Homo sapiens, UniProt Q13464); type: functional;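 note: measured within a broad kinome-wide panel profiling many kinases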
Rho-associated protein kinase 1, sequence (Q13464 whole entry): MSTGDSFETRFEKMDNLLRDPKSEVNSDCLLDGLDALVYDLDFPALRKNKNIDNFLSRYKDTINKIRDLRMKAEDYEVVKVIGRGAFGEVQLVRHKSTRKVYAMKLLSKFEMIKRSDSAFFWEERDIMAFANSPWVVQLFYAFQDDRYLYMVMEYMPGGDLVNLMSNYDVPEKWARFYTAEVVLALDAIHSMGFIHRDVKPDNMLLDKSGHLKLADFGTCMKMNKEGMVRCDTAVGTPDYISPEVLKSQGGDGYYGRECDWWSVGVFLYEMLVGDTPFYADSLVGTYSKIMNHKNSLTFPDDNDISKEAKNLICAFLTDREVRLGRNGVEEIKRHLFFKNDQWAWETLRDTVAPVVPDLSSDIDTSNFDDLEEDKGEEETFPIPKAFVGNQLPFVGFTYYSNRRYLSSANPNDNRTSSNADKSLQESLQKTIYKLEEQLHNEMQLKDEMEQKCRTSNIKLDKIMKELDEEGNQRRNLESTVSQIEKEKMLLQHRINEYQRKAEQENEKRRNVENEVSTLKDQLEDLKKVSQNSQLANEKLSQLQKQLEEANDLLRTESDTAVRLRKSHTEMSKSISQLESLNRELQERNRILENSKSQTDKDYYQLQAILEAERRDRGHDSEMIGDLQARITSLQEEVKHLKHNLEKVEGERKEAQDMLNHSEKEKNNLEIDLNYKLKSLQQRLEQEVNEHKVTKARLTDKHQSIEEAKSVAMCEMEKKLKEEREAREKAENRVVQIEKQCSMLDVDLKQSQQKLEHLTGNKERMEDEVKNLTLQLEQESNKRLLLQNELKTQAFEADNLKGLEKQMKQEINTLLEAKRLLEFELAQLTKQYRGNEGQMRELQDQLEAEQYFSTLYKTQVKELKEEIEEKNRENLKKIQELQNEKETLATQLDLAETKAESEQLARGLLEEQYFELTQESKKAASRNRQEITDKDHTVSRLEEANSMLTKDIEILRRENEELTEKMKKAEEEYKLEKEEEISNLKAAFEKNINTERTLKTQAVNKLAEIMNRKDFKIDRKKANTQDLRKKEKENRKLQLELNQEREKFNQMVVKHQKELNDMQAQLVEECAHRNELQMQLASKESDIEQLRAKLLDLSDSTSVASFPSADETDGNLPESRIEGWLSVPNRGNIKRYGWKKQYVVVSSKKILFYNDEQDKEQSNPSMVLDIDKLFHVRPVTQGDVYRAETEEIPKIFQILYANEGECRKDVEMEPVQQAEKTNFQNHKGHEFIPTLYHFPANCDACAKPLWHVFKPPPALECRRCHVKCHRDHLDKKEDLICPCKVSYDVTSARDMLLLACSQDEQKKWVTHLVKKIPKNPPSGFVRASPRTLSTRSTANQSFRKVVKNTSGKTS

[9] = target: Vascular endothelial growth factor receptor 2 (Homo sapiens, UniProt P35968); type: functional
[10] = target: Serine/threonine-protein kinase DCLK1 (Homo sapiens, UniProt O15075); type: functional;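 note: affinity for DCLK1 (listed as DCAMKL1) measured as one member of a kinome-wide kinase profiling panel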
Serine/threonine-protein kinase DCLK1, sequence (O15075 whole entry): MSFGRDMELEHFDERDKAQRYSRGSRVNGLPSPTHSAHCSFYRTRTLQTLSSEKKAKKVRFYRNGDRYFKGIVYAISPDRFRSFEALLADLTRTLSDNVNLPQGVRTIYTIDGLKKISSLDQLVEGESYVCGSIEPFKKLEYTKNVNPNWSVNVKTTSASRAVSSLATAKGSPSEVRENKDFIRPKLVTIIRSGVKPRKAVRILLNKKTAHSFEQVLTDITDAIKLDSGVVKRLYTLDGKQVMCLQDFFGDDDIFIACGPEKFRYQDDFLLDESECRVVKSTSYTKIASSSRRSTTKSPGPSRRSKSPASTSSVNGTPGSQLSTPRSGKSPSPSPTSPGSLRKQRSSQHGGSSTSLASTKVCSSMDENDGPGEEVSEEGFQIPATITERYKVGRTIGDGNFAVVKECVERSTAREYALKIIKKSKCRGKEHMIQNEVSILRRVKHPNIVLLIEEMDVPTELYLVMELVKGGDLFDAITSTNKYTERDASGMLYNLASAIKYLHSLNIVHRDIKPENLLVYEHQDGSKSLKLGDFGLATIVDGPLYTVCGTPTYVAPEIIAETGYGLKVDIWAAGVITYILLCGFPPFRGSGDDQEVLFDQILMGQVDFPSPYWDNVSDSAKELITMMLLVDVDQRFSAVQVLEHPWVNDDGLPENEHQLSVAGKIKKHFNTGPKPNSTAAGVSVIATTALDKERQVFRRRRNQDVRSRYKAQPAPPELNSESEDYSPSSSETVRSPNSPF

[11] = target: Serine/threonine-protein kinase MRCK alpha (Homo sapiens, UniProt Q5VT25); type: functional
[12] = target: Mitogen-activated protein kinase 1 (Homo sapiens, UniProt P28482); type: functional
[13] = target: Tyrosine-protein kinase receptor TYRO3 (Homo sapiens, UniProt Q06418); type: functional;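 note: TYRO3 value obtained as one member of a kinome-wide profiling panel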
[14] = target: BDNF/NT-3 growth factors receptor (Homo sapiens, UniProt Q16620); type: functional;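 note: NTRK2 measured as one member of a broad kinome-wide kinase profiling panel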
[15] = target: Serine/threonine-protein kinase D3 (Homo sapiens, UniProt O94806); type: functional;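 note: determined within a kinase panel screen, with PRKCN as the panel member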
[16] = target: Fibroblast growth factor receptor 1 (Homo sapiens, UniProt P11362); type: functional
[17] = target: Tyrosine-protein kinase ABL1 (Homo sapiens, UniProt P00519); type: functional
[18] = target: Dual specificity mitogen-activated protein kinase kinase 1 (Homo sapiens, UniProt Q02750); assay: Navigating the Kinome. Panel member name: MAP2K1; type: functional
Dual specificity mitogen-activated protein kinase kinase 1, sequence (Q02750 whole entry): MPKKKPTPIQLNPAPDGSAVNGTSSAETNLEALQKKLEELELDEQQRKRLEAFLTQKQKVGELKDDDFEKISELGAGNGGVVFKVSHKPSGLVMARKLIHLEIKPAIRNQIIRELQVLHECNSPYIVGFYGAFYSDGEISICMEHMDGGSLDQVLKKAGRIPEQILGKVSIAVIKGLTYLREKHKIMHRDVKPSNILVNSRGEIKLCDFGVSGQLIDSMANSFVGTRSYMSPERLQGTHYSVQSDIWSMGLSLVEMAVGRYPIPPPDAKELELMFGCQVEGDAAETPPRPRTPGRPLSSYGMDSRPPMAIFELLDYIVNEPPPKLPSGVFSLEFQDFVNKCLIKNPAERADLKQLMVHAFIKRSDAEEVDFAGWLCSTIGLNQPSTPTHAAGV

[19] = target: Ribosomal protein S6 kinase alpha-3 (Homo sapiens, UniProt P51812); type: functional;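 note: measured within a kinome-wide profiling panel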
[20] = target: Mitogen-activated protein kinase 13 (Homo sapiens, UniProt O15264); type: functional
[21] = target: Serine/threonine-protein kinase PAK 1 (Homo sapiens, UniProt Q13153); type: functional
[22] = target: Tyrosine-protein kinase Srms (Homo sapiens, UniProt Q9H3Y6); type: functional;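 note: SRMS measured as one member of a kinome-wide kinase profiling panel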
[23] = target: Cell division cycle 7-related protein kinase (Homo sapiens, UniProt O00311); type: functional;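 note: value obtained from a kinome-wide kinase panel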
Cell division cycle 7-related protein kinase, sequence (O00311 whole entry): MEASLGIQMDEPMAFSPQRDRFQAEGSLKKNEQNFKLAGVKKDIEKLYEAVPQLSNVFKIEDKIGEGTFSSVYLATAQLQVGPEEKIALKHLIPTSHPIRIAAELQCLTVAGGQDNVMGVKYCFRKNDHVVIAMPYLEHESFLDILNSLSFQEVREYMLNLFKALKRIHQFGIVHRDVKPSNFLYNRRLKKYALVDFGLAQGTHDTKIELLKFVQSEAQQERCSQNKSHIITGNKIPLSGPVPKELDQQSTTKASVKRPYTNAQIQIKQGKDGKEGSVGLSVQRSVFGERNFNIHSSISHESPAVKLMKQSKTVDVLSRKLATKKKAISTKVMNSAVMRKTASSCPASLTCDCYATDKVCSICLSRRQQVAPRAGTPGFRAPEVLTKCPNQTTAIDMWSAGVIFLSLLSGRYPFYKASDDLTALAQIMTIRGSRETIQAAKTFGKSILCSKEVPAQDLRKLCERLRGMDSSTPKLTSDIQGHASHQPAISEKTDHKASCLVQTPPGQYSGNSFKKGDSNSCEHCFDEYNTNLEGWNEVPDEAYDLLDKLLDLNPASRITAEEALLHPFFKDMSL

[24] = target: Mitogen-activated protein kinase kinase kinase 20 (Homo sapiens, UniProt Q9NYL2); type: functional
Mitogen-activated protein kinase kinase kinase 20, sequence (Q9NYL2 whole entry): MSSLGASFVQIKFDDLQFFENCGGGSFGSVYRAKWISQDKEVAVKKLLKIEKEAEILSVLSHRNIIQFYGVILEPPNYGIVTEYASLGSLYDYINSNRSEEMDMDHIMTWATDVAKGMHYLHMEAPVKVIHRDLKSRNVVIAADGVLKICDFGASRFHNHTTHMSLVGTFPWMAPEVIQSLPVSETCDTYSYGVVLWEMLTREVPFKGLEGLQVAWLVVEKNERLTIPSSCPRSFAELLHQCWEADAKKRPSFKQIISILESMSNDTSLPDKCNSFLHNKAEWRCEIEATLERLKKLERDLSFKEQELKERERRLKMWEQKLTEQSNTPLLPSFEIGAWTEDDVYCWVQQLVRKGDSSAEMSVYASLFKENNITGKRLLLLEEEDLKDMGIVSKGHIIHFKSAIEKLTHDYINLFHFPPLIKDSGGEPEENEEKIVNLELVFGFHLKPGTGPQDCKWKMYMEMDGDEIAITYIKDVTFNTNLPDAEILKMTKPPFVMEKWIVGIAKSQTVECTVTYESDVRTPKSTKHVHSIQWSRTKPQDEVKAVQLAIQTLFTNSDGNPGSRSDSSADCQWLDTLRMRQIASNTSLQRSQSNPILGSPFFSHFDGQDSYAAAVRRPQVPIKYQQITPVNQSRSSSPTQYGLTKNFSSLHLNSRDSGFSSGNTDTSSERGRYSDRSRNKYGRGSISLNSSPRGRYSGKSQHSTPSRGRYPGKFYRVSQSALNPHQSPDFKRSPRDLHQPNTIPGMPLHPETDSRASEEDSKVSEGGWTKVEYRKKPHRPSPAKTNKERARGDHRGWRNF

[25] = target: Tyrosine-protein kinase JAK3 (Homo sapiens, UniProt P52333); type: functional
[26] = target: Serine/threonine-protein kinase pim-2 (Homo sapiens, UniProt Q9P1W9); type: functional;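 note: value comes from a broad kinase panel profiling study in which PIM2 was one of the panel members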
[27] = target: Lymphokine-activated killer T-cell-originated protein kinase (Homo sapiens, UniProt Q96KB5); type: functional;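 note: value comes from a kinase panel screen in which TOPK was one of the panel members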
Lymphokine-activated killer T-cell-originated protein kinase, sequence (Q96KB5 whole entry): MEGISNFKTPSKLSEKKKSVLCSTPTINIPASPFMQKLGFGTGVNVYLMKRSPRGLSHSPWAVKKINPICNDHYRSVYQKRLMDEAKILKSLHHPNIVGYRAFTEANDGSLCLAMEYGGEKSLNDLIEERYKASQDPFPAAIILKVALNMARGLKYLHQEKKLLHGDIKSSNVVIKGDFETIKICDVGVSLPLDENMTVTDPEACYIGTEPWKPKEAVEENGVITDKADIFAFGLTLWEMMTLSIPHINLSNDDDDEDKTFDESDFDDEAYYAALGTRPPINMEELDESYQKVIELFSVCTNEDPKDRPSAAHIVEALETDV

[28] = target: RAC-alpha serine/threonine-protein kinase (Homo sapiens, UniProt P31749); type: functional;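 note: AKT1 affinity measured as one member of a kinome-wide kinase profiling panel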
RAC-alpha serine/threonine-protein kinase, sequence (P31749 whole entry): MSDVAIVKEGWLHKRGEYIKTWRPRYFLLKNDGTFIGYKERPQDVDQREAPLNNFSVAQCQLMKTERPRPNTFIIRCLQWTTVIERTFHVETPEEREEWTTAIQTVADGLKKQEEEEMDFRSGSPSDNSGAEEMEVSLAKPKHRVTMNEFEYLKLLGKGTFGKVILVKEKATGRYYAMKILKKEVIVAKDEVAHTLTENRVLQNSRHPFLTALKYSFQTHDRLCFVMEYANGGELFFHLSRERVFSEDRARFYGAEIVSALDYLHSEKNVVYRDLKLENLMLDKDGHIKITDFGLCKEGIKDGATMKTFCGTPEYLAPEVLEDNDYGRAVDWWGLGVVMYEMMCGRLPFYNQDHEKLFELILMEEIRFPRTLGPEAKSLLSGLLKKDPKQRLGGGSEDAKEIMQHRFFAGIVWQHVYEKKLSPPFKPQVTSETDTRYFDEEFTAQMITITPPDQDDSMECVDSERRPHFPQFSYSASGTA

[29] = target: Vascular endothelial growth factor receptor 1 (Homo sapiens, UniProt P17948); type: functional;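 note: measured within a kinome-wide profiling panel, FLT1 as the panel member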
[30] = test system: INS1; assay: beta cell apoptosis inhibitors, cytokine rescue, dose response, luminescence, retest (AID 449756); type: functional, cell-based; conditions: Rattus norvegicus;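 note: cell death triggered by IL-1 beta plus TNF-alpha plus IFN-gamma mixture; protective hits raise ATP signal compared with cytokine alone wells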
[31] = target: Heat shock protein HSP 90-alpha (Homo sapiens, UniProt P07900); type: functional, organism-based
[32] = microbe, parasite or virus in culture; type: functional; conditions: Mycobacterium tuberculosis
[33] = target: Bcl-2-like protein 1 (Homo sapiens, UniProt Q07817); assay: BCL-XL inhibitors, dose response, selectivity assay for MCL1 inhibitor project, biochemical, fluorescence polarization, 1536-well (AID 2218)
[34] = Luminescence Cell-Based Dose Confirmation HTS to Identify Activators of 5'UTR Stem-Loop Driven Alpha-Synuclein mRNA Translation in H4 Neuroglioblastoma Cells. [Related pubchem assays: 1829 (Project Summary), 1814 (Primary HTS)]; type: functional
[35] = Luminescence Cell-Based Dose Response to Identify Activators of 5'UTR Stem-Loop Driven Prion Protein mRNA Translation in H4-C Neuroglioblastoma Cells. [Related pubchem assays: 1829 (Project Summary), 1814 (Primary HTS)]; type: functional
[36] = test system: H4; assay: Luminescence Cell-Based Dose Response HTS to Identify Activators of 5'UTR Stem-Loop Driven Prion Protein mRNA Translation in H4 Neuroglioblastoma Cells. [Related pubchem assays: 1829 (Project Summary), 1814 (Primary HTS)]; type: functional; conditions: Homo sapiens
[37] = target: T1, Alkaline phosphatase, tissue-nonspecific isozyme (Homo sapiens, UniProt P05186); assay: inhibition of tissue-nonspecific alkaline phosphatase – biochemical, dose response (AID 488882); type: functional
T1 sequence (P05186 whole entry): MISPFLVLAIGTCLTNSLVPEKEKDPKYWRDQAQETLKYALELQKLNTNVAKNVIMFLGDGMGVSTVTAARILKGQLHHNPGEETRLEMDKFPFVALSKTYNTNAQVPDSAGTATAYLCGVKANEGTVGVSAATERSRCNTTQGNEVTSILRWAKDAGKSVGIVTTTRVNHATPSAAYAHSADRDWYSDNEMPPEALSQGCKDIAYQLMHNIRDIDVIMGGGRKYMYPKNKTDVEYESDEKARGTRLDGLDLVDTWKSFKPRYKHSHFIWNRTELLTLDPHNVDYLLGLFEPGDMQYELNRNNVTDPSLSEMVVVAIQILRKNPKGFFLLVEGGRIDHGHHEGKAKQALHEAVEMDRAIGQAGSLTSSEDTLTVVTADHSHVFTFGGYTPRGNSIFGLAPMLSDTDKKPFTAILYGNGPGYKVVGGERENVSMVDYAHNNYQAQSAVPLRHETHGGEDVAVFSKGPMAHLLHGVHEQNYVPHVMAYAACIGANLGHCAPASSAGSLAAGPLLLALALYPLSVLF

Casein kinase I isoform alpha, sequence (P48729 whole entry, canonical isoform): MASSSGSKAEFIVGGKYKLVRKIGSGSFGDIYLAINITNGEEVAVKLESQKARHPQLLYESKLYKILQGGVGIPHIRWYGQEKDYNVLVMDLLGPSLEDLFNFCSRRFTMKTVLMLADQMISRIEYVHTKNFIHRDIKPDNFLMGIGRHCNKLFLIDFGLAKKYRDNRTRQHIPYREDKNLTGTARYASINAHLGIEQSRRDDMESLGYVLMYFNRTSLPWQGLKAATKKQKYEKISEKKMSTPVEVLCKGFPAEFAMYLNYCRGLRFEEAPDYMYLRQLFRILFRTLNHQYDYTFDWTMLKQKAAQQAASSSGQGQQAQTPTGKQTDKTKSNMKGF

Structure (SMILES): CN1CCN(c2nc(C3=C(c4c[nH]c5ccccc45)C(=O)NC3=O)c3ccccc3n2)CC1 [SOTRASTAURIN]
- Ki [1]: > 2.51 µM (inactive)
- Ki [2]: > 5.01 µM (inactive)
- Ki [3]: 2.51 µM (active)
- Ki [4]: > 7.94 µM (inactive)
- Ki [5]: > 2.51 µM (inactive)
- Ki [6]: > 7.94 µM (inactive)
- Ki [7]: > 7.94 µM (inactive)
- Ki [8]: > 2 µM (inactive)
- Ki [9]: 398 nM (active)
- Ki [10]: > 10 µM (inactive)
- Ki [11]: > 10 µM (inactive)
- Ki [12]: > 7.94 µM (inactive)
- Ki [13]: > 2.51 µM (inactive)
- Ki [14]: > 3.98 µM (inactive)
- Ki [15]: > 3.16 µM (inactive)
- Ki [16]: > 2.51 µM (inactive)
- Ki [17]: > 1.58 µM (inactive)
- Ki [18]: 3.16 µM (active)
- Ki [19]: 126 nM (active)
- Ki [20]: > 7.94 µM (inactive)
- Ki [21]: > 10 µM (inactive)
- Ki [22]: > 1.58 µM (inactive)
- Ki [23]: > 1.26 µM (inactive)
- Ki [24]: > 7.94 µM (inactive)
- Ki [25]: 631 nM (active)
- Ki [26]: 1.58 nM (active)
- Ki [27]: > 10 µM (inactive)
- Ki [28]: 501 nM (active)
- Ki [29]: > 2 µM (inactive)

Structure (SMILES): CCCCCCCCCCOC(=O)C[n+]1c(COc2ccc(C)cc2)n(C)c2ccccc21
- AC50 [30]: 3.4 µM (active)
- AC50 [31]: 19.3 µM (active)

Structure (SMILES): CCC(C)n1c(NC(=O)c2ccccc2)c(C#N)c2nc3ccccc3nc21 (stereo not drawn)
- CC50 [32]: 28.1 µM (active)

Structure (SMILES): CC[C@@H](CO)NC(=O)[C@@H]1C=C2c3cccc4c3c(cn4C)C[C@H]2N(C)C1 [METHYSERGIDE MALEATE]
- IC50 [33]: 22.6 µM (not active)

Structure (SMILES): CCN1/C(=C\c2ccc3ccccc3[n+]2CC)Sc2cc(C)ccc21
- EC50 [34]: 15.7 µM (active)
- EC50 [35]: > 12 µM (not active)
- AC50 [31]: 7.75 µM (active)
- EC50 [36]: > 120 µM (not active)
- IC50 [37]: 28.6 µM (active)
